Measured values taken from PMC12133982, “Predominant T-cell epitopes of SARS-CoV-2 restricted by multiple prevalent HLA-B and HLA-C allotypes in Northeast Asia” (Frontiers in Immunology, 2025).
Peptide text beside a SMILES is read from it.

Key:
[1] = biological target: HLA-B5801 (Homo sapiens, UniProt P01889, A329T/C349S/D201E/D98Y/E176V/E187L/E204Q/E69T/G107R/I218V/I90N/K202T/L105A/L119I/N104I/N87E/Q89R/Q94S/R106L/R155S/R180L/R86G/S101N/S121R/S35A/S48A/T118I/V127L/V306I/V36M/Y140S/Y91M); assay: Competitive peptide binding assay, CIR-B5801; conditions: HMy2.CIR-B5801 cells, reference Cy5-[…], class from inhibition at 5 and 15 μM, flow cytometry MFI; read-out: Binding affinity with HLA-B5801
Procedure: (§1) Then, competitive peptide binding assays were performed.

[2] = biological target: HLA-B4001 (Homo sapiens, UniProt P01889, A65T/A93T/A95T/D138N/D98Y/E176V/E69K/N87E/Q56L/Q94N/R180L/S121R/S35A/S48T/T167S/V36M/W171L/Y33H/Y91S); assay: Competitive peptide binding assay, CIR-B4001; conditions: HMy2.CIR-B4001 cells, reference Cy5-[…], class from inhibition at 5 and 15 μM, flow cytometry MFI; read-out: Binding affinity with HLA-B4001
Procedure: as §1

[3] = biological target: HLA-B1501 (Homo sapiens, UniProt P01889, A329T/A93T/A95T/C349S/D201E/D98Y/E187L/E204Q/E69M/E70A/K202T/N87E/Q94N/R155S/R180W/S121R/S35A/S48A/V306I/V36M/Y140S/Y91S); assay: Competitive peptide binding assay, CIR-B1501; conditions: HMy2.CIR-B1501 cells, reference Cy5-[…], class from inhibition at 5 and 15 μM, flow cytometry MFI; read-out: Binding affinity with HLA-B1501
Procedure: as §1

[4] = biological target: HLA-B1301 (Homo sapiens, UniProt P01889, A65T/A93T/A95T/D138N/D201E/D98Y/E176V/E204Q/E69M/E70A/G107R/K202T/L105A/L119I/N104T/N87E/Q94N/R106L/R155S/R169L/R180L/S101N/S121R/S35A/S48T/T118I/V127L/V36M/Y140L/Y91S); assay: Competitive peptide binding assay, CIR-B1301; conditions: HMy2.CIR-B1301 cells, reference Cy5-[…], class from inhibition at 5 and 15 μM, flow cytometry MFI; read-out: Binding affinity with HLA-B1301
Procedure: as §1

[5] = biological target: HLA-B4601 (Homo sapiens, UniProt P01889, A329T/A93R/C349S/D201E/E100V/E187L/E204Q/E69M/E70A/I90K/K202T/N87E/R155S/R180W/S121R/S35A/S48A/V306I/V36M/Y140S); assay: Competitive peptide binding assay, CIR-B4601; conditions: HMy2.CIR-B4601 cells, reference Cy5-[…], class from inhibition at 5 and 15 μM, flow cytometry MFI; read-out: Binding affinity with HLA-B4601
Procedure: as §1

[6] = biological target: T1, HLA-B0702 (Homo sapiens, UniProt P01889); assay: Competitive peptide binding assay, CIR-B0702; conditions: HMy2.CIR-B0702 cells, reference Cy5-[…], class from inhibition at 5 and 15 μM, flow cytometry MFI
T1 construct: expressed in transfected cells; host or cells: HMy2.CIR
Procedure: as §1

[7] = biological target: HLA-B3501 (Homo sapiens, UniProt P01889, A329T/A93T/A95T/C349S/D201E/D98Y/E176V/E187L/E204Q/E69T/I218V/K202T/L119I/Q94N/R155S/R180L/S121R/S35A/S48A/T118I/V127L/V306I/V36M/Y140S/Y91F); assay: Competitive peptide binding assay, CIR-B3501; conditions: HMy2.CIR-B3501 cells, reference Cy5-[…], class from inhibition at 5 and 15 μM, flow cytometry MFI; read-out: Binding affinity with HLA-B3501
Procedure: as §1

[8] = biological target: HLA-B1502 (Homo sapiens, UniProt P01889, A329T/A93T/A95T/C349S/D201E/D98Y/E187L/E204Q/E69M/E70A/H137Y/K202T/L119I/Q94N/R155S/R180L/S121R/S35A/S48A/T118I/V306I/V36M/Y140S/Y91S); assay: Competitive peptide binding assay, CIR-B1502; conditions: HMy2.CIR-B1502 cells, reference Cy5-[…], class from inhibition at 5 and 15 μM, flow cytometry MFI; read-out: Binding affinity with HLA-B1502
Procedure: as §1

[9] = biological target: HLA-B4403 (Homo sapiens, UniProt P01889, A223V/A65T/A93T/A95T/D201E/D98Y/E176V/E187L/E204Q/E69K/G107R/H137Y/K202T/L105A/L119I/N104T/N87E/Q56L/Q94N/R106L/R155S/R180L/S101N/S121R/S35A/S48T/T118I/V36M/W191S/Y140D/Y91S); assay: Competitive peptide binding assay, CIR-B4403; conditions: HMy2.CIR-B4403 cells, reference Cy5-CYMEAVAL, class from inhibition at 5 and 15 μM, flow cytometry MFI; read-out: Binding affinity with HLA-B4403
Procedure: as §1

[10] = biological target: HLA-B1302 (Homo sapiens, UniProt P01889, A65T/A93T/A95T/D138N/D201E/D98Y/E176V/E204Q/E69M/E70A/G107R/K202T/L105A/L119W/N104T/N87E/Q94N/R106L/R155S/R169L/R180L/S101N/S121T/S35A/S48T/V127L/V36M/Y140L/Y91S); assay: Competitive peptide binding assay, CIR-B1302; conditions: HMy2.CIR-B1302 cells, reference Cy5-MMWYWGPSL, class from inhibition at 5 and 15 μM, flow cytometry MFI; read-out: Binding affinity with HLA-B1302
Procedure: as §1

| SMILES | IC50 [1] | IC50 [2] | IC50 [3] | IC50 [4] | IC50 [5] | IC50 [6] | IC50 [7] | IC50 [8] | IC50 [9] | IC50 [10] |
| --- | --- | --- | --- | --- | --- | --- | --- | --- | --- | --- |
| CSCC[C@H](NC(=O)[C@H](C)NC(=O)[C@@H]1CCCN1C(=O)[C@H](CC(=O)O)NC(=O)[C@H](C)NC(=O)[C@H](C)NC(=O)[C@H](Cc1ccc(O)cc1)NC(=O)[C@@H](NC(=O)[C@@H](N)CC(C)C)C(C)C)C(=O)O [Epitope Y165] (H-LVYAADPAM-OH; N-terminus and C-terminus assumed) | > 15 µM | > 15 µM | > 15 µM | 5 to 15 µM | 5 to 15 µM | 5 to 15 µM | < 5 µM | 5 to 15 µM |  |  |
| CC(C)[C@H](NC(=O)[C@@H](NC(=O)[C@@H](N)Cc1ccccc1)C(C)C)C(=O)N[C@@H](CO)C(=O)N[C@H](C(=O)NCC(=O)N[C@@H](Cc1ccc(O)cc1)C(=O)N[C@@H](Cc1c[nH]cn1)C(=O)N[C@@H](Cc1ccccc1)C(=O)O)[C@@H](C)O [Epitope Y167] (H-FVVSTGYHF-OH; N-terminus and C-terminus assumed) | > 15 µM |  | > 15 µM | > 15 µM | 5 to 15 µM | > 15 µM | 5 to 15 µM | 5 to 15 µM | > 15 µM |  |
| CC(C)C[C@H](NC(=O)[C@H](CC(C)C)NC(=O)[C@H](C)NC(=O)[C@H](CCC(N)=O)NC(=O)[C@H](CCCNC(=N)N)NC(=O)[C@@H](NC(=O)[C@H](CCCNC(=N)N)NC(=O)[C@H](CCC(=O)O)NC(=O)CN)C(C)C)C(=O)O [Epitope Y202] (H-GERVRQALL-OH; N-terminus and C-terminus assumed) | > 15 µM |  | > 15 µM | > 15 µM | 5 to 15 µM | > 15 µM | > 15 µM | > 15 µM |  | > 15 µM |
| CC[C@H](C)[C@H](NC(=O)[C@@H](NC(=O)[C@H](CC(C)C)NC(=O)[C@H](CCC(=O)O)NC(=O)[C@H](CO)NC(=O)[C@H](CCC(=O)O)NC(=O)[C@@H](N)CC(C)C)C(C)C)C(=O)NCC(=O)N[C@@H](C)C(=O)N[C@H](C(=O)O)C(C)C [Epitope Y211] (H-LESELVIGAV-OH; N-terminus and C-terminus assumed) | > 15 µM | 5 to 15 µM | 5 to 15 µM | > 15 µM | > 15 µM | > 15 µM | > 15 µM | > 15 µM |  | > 15 µM |
| CC[C@H](C)[C@H](NC(=O)[C@H](Cc1ccc(O)cc1)NC(=O)[C@H](CCC(N)=O)NC(=O)[C@H](CCC(=O)O)NC(=O)[C@@H](N)Cc1ccc(O)cc1)C(=O)N[C@@H](CCCCN)C(=O)N[C@@H](Cc1c[nH]c2ccccc12)C(=O)N1CCC[C@H]1C(=O)N[C@@H](Cc1c[nH]c2ccccc12)C(=O)O [Epitope Y230] (H-YEQYIKWPW-OH; N-terminus and C-terminus assumed) | 5 to 15 µM | > 15 µM | > 15 µM |  | > 15 µM |  | > 15 µM | > 15 µM | < 5 µM |  |
| CC[C@H](C)[C@H](N)C(=O)N[C@@H](C)C(=O)N[C@@H](CCSC)C(=O)N[C@@H](C)C(=O)N[C@@H](CS)C(=O)N[C@@H](CC(C)C)C(=O)N[C@H](C(=O)NCC(=O)N[C@@H](CC(C)C)C(=O)O)C(C)C [Epitope Y253] (H-IAMACLVGL-OH; N-terminus and C-terminus assumed) | > 15 µM |  | > 15 µM | 5 to 15 µM | < 5 µM |  | > 15 µM | > 15 µM | 5 to 15 µM | 5 to 15 µM |
